Assay results published in patent US20250325670A1, “NOVEL BORON AGENT” (priority 2021, published 2025).

Tests used:
A549 cells (FRα(−)) = test: BNCT antitumor effect in vitro (thermal neutron irradiation, MTT survival rate); type: cell-based, human; conditions: 25 ppm 10B, 3 hours, thermal neutron dose-dependent, MTT after 96 hours
Protocol: (A) Human brain tumor cell U87MG (FRα(+)), (B) human lung cancer cell A549 (FRα(−)). The cells were cultured for 3 hours with an agent ^10B at a concentration of 25 ppm, followed by removal of the agent and irradiated.
Cells (A549 1000 cells/well or U-87 MG 500 cells/well) seeded in a 96 well plate were cultured together with PBC-IP and L-BPA-fructose at a concentration of 25 ppm [^10B] at 37° C. for 3 hours, and then unilaterally irradiated with thermal neutrons from one side of the plate for 12 minutes. Subsequently, the medium was replaced, the cells were cultured for 96 hours, and then an MTT assay was carried out to evaluate the survival rate of the cells (FIG. 3). The thermal neutron irradiation was carried out by using the irradiation facility of the Institute for Integrated Radiation and Nuclear Science, Kyoto University (KUR), and the cells after irradiation were cultured in the controlled area of KUR. In addition, the survival rate is calculated based on the following expression.

[1] = Changes in body weight after BNCT irradiation; type: in vivo, mouse; conditions: 25 mg (10B)/kg iv, neutron irradiated
Protocol: As described in (A), the U-87 MG tumor-bearing mice were injected with 200 μL of a PBS solution of a boron compound (PBC-IP-HSA, L-BPA: 25 mg (^10B)/kg for each) through the tail vein. The whole mouse was placed in an acrylic mouse holder and fixed to a thermoplastic plate having a thickness of 5 mm. Three hours (L-BPA) or six hours (PBC-IP-HSA) after administration, the right thigh of the mouse was irradiated with a neutron in a dose range of 4.5 to 6.1×10^12 neutrons/cm^2 in the KUR reactor. The BNCT effect was evaluated based on the changes in tumor volume in the mouse (FIG. 4B). In order to determine the tumor volume, two perpendicular diameters of the tumor were measured with slide calipers and calculated by using the spherical volume expression {4/3π×(R/2)^3}. Here, R is the average of the longest dimension and the shortest dimension (each in millimeters) of the tumor.
In the irradiation experiment carried out in (B), changes in body weight after irradiation were measured.

[2] = tested on: A549, U87MG, C6, F98 cells; test: Intracellular boron accumulation in various cells (ICP-AES); type: cell-based, human, rat; conditions: 5 μg B/mL
Protocol: F98 rat malignant glioblastoma cells were provided by Dr. Rolf Barth (Department of Pathology, The Ohio State University, Columbus, OH, US) and were cultured at 37° C. in 5% CO^2 by using Dulbecco's modified Eagle's medium (DMEM) supplemented with 10% fetal bovine serum (FBS) and 10% penicillin/streptomycin/amphotericin B. The F98 rat malignant glioblastoma cells were histologically characterized as anaplastic astrocytoma.
First, 5×10^5 cells were placed in a 100 mm dish (Becton Dickinson, Franklin Lakes, New Jersey) and cultured at 37° C. in 5% CO2 by using the medium described above. […] After that, the medium containing the boron compound was removed, and the cells were washed twice with 4% phosphate buffered saline (PBS) and then detached with a trypsin-ethylenediaminetetraacetic acid solution. After that, a medium was added, centrifugation (200×g, 5 minutes) was carried out twice, and cells were counted and finally sedimented. After that, the cells were digested with a 1 N nitric acid solution (Wako Pure Chemical Industries, Osaka Japan) overnight, and the amount of boron taken up was measured by inductively coupled plasma-atomic emission spectroscopy (ICP-AES) using an iCAP6300 emission spectrometer (Hitachi High-Technologies, Tokyo, Japan).

[3] = tested on: F98 malignant glioblastoma; test: BNCT therapeutic effect (survival time) in F98 malignant glioblastoma cell-implanted rat brain tumor model; type: in vivo; conditions: after tumor implantation; BNCT with BPA (iv) or PBC-IP (CED)
Protocol: Three hours after administration of PBC-IP (CED), neutron irradiation was carried out to verify the therapeutic effect of neutron capture therapy (FIG. 7). The brain tumor models were divided into an untreated group, a neutron irradiation only group, a BNCT with BPA (iv) group, a BNCT with local administration of PBC-IP (CED) group, and a PBC-IP (CED) plus BPA (iv) group to carry out a treatment experiment, and the survival times after tumor implantation were compared. The therapeutic effect of intravenous BPA as a control for BNCT treatment represented a significant prolongation of survival time with a median survival time of 37 days. […] The effect was even higher in the group that received treatment with PBC-IP (CED) […] plus intravenous BPA, indicating the antitumor effect of PBC-IP on a BPA-refractory tumor site. In the C6-implanted rat brain tumor model, the tumor boron concentration by PBC-IP (CED) was about 36 ppm, which was higher than that for F98.
In a BNCT experiment, 14 days after implantation of 10^3 F98 malignant glioblastoma cells, neutron irradiation was carried out by using KURRI. Malignant glioblastoma cell-bearing rats were randomly divided into 5 groups (groups 1 to 5) so that each group consisted of 6 to 10 rats. […] The therapeutic effect was evaluated by the survival times of all rats.

SMILES: N[C@@H](Cc1ccc(B(O)O)cc1)C(=O)O [BPA]
- BNCT antitumor effect (cell survival rate) (A549 cells (FRα(−))): higher BNCT antitumor effect
- changes in body weight after irradiation compared with the control group [1]: no significant difference
- selective accumulation among the four types of cells [2]: selective accumulation in the A549 cells
- median survival time [3]: 37 days
